According to patent publication US6673812B1, “Preventives/remedies for glaucoma” (Senju Pharmaceutical Co., Ltd., priority 1998, dated 2004):

Tested on: Japanese white rabbits
Test: Ophthalmic disorder caused by 8-time-a-day instillation to white rabbits: macroscopic observation of anterior segment of the eye
Assay type: in vivo, rabbit
Parameters: scale not given here
Conditions: mean of three eyes
Protocol: The test drugs, Compound A and Compound C, were each dissolved in the following base at a concentration of 0.125, 0.25, 0.5 and 1.0% and adjusted to pH 7 for use in this experiment. [table] Japanese white rabbits (body weight about 2 kg) purchased from Japan Laboratory Animals, INC. were used. These animals were bred in a breeding chamber set to temperature 23±3° C., humidity 55±10% and fed on limited amount of 100 g a day of a solid feed (Labo R Stock, Nihon-Nosan Kogyo K.K.). They were allowed free access to tap water. Instillation: Using a micropipet, each test drug (100 μl) was instilled into the right eye of each animal 8 times at one hour intervals. Into the left eye was instilled a base in the same manner. Observation: anterior segment of the eye was macroscopically observed before instillation and 30 min after 2nd, 4th, 6th and 8th administrations, according to the macroscopic criteria for ocular lesions as shown in Table 1 (Naruyuki Fukui, […] no Rinshou 4, 277-289, 1970). In addition, corneal staining spot was observed before instillation and after 8th administration. [table]

[1] = 0.125%, 30 min after 2nd instillation
[2] = 0.125%, 30 min after 4th instillation
[3] = 0.125%, 30 min after 6th instillation
[4] = 0.125%, 30 min after 8th instillation
[5] = 0.25%, 30 min after 2nd instillation
[6] = 0.25%, 30 min after 4th instillation
[7] = 0.25%, 30 min after 6th instillation
[8] = 0.25%, 30 min after 8th instillation
[9] = 0.5%, 30 min after 2nd instillation
[10] = 0.5%, 30 min after 4th instillation
[11] = 0.5%, 30 min after 6th instillation
[12] = 0.5%, 30 min after 8th instillation
[13] = 1.0%, 30 min after 2nd instillation
[14] = 1.0%, 30 min after 4th instillation
[15] = 1.0%, 30 min after 6th instillation
[16] = 1.0%, 30 min after 8th instillation

With `CC(N)[C@H]1CC[C@H](C(=O)Nc2ccncc2)CC1.Cl.Cl.O` (single isomer, unassigned; (+)) [Compound A, (+)-trans-4-(1-Aminoethyl)-1-(4-pyridylcarbamoyl)cyclohexane 2HCl 1H2O] the “Score of ocular lesions: Conjunctiva Bulbar redness” value (“Score … Conjunctiva Bulbar redness” below) [1] was 0.33, the “Score of ocular lesions: Conjunctiva Discharge” value (from here on “Score … Conjunctiva Discharge”) [1] was 0 and the “Score of ocular lesions: Conjunctiva Nictitating membrane” value [1] was 0. For the same molecule, the “Score of ocular lesions: Conjunctiva Palpebral edema” value (from here on “Score … Conjunctiva Palpebral edema”) [1] was 0, the “Score of ocular lesions: Conjunctiva Palpebral redness” value (“Score … Conjunctiva Palpebral redness” below) [1] was 0.17 and the “Score of ocular lesions: Cornea Area” value [1] was 0. The “Score of ocular lesions: Cornea Degree” value [1] was 0, the “Score of ocular lesions: Iris Values” [1] was 0 and the “Score of ocular lesions: Total score” value [1] was 0.50. For the same molecule, the “Score … Conjunctiva Bulbar redness” value [2] was 0.33, the “Score … Conjunctiva Discharge” value [2] was 0.17 and the “Score of ocular lesions: Conjunctiva Nictitating membrane” value [2] was 0. For the same molecule, the “Score … Conjunctiva Palpebral edema” value [2] was 0, the “Score … Conjunctiva Palpebral redness” value [2] was 0 and the “Score of ocular lesions: Cornea Area” value [2] was 0. For the same molecule, the “Score of ocular lesions: Cornea Degree” value [2] was 0, the “Score of ocular lesions: Iris Values” [2] was 0 and the “Score of ocular lesions: Total score” value [2] was 0.50. The “Score … Conjunctiva Bulbar redness” value [3] was 0.33, the “Score … Conjunctiva Discharge” value [3] was 0.50 and the “Score of ocular lesions: Conjunctiva Nictitating membrane” value [3] was 0. For the same molecule, the “Score … Conjunctiva Palpebral edema” value [3] was 0.33, the “Score … Conjunctiva Palpebral redness” value [3] was 0.33 and the “Score of ocular lesions: Cornea Area” value [3] was 0. The “Score of ocular lesions: Cornea Degree” value [3] was 0, the “Score of ocular lesions: Iris Values” [3] was 0 and the “Score of ocular lesions: Total score” value [3] was 1.99. The “Score … Conjunctiva Bulbar redness” value [4] was 0.33, the “Score … Conjunctiva Discharge” value [4] was 0 and the “Score of ocular lesions: Conjunctiva Nictitating membrane” value [4] was 0.17. For the same molecule, the “Score … Conjunctiva Palpebral edema” value [4] was 0.50, the “Score … Conjunctiva Palpebral redness” value [4] was 0.33 and the “Score of ocular lesions: Cornea Area” value [4] was 0. The “Score of ocular lesions: Cornea Degree” value [4] was 0, the “Score of ocular lesions: Iris Values” [4] was 0 and the “Score of ocular lesions: Total score” value [4] was 1.33. For the same molecule, the “Score … Conjunctiva Bulbar redness” value (0.125%, Before instillation) was 0, the “Score … Conjunctiva Discharge” value (0.125%, Before instillation) was 0 and the “Score of ocular lesions: Conjunctiva Nictitating membrane” value (0.125%, Before instillation) was 0. For the same molecule, the “Score … Conjunctiva Palpebral edema” value (0.125%, Before instillation) was 0, the “Score … Conjunctiva Palpebral redness” value (0.125%, Before instillation) was 0 and the “Score of ocular lesions: Cornea Area” value (0.125%, Before instillation) was 0. The “Score of ocular lesions: Cornea Degree” value (0.125%, Before instillation) was 0, the “Score of ocular lesions: Iris Values” (0.125%, Before instillation) was 0 and the “Score of ocular lesions: Total score” value (0.125%, Before instillation) was 0. For the same molecule, the “Score … Conjunctiva Bulbar redness” value [5] was 0.50, the “Score … Conjunctiva Discharge” value [5] was 0 and the “Score of ocular lesions: Conjunctiva Nictitating membrane” value [5] was 0.17. For the same molecule, the “Score … Conjunctiva Palpebral edema” value [5] was 0, the “Score … Conjunctiva Palpebral redness” value [5] was 0.17 and the “Score of ocular lesions: Cornea Area” value [5] was 0. For the same molecule, the “Score of ocular lesions: Cornea Degree” value [5] was 0, the “Score of ocular lesions: Iris Values” [5] was 0 and the “Score of ocular lesions: Total score” value [5] was 0.84. The “Score … Conjunctiva Bulbar redness” value [6] was 0.50, the “Score … Conjunctiva Discharge” value [6] was 0.17 and the “Score of ocular lesions: Conjunctiva Nictitating membrane” value [6] was 0.50. For the same molecule, the “Score … Conjunctiva Palpebral edema” value [6] was 0, the “Score … Conjunctiva Palpebral redness” value [6] was 0 and the “Score of ocular lesions: Cornea Area” value [6] was 0. The “Score of ocular lesions: Cornea Degree” value [6] was 0, the “Score of ocular lesions: Iris Values” [6] was 0 and the “Score of ocular lesions: Total score” value [6] was 1.00. For the same molecule, the “Score … Conjunctiva Bulbar redness” value [7] was 0.50, the “Score … Conjunctiva Discharge” value [7] was 0.50 and the “Score of ocular lesions: Conjunctiva Nictitating membrane” value [7] was 0.50. For the same molecule, the “Score … Conjunctiva Palpebral edema” value [7] was 0.17, the “Score … Conjunctiva Palpebral redness” value [7] was 0.33 and the “Score of ocular lesions: Cornea Area” value [7] was 0. For the same molecule, the “Score of ocular lesions: Cornea Degree” value [7] was 0, the “Score of ocular lesions: Iris Values” [7] was 0 and the “Score of ocular lesions: Total score” value [7] was 1.50. The “Score … Conjunctiva Bulbar redness” value [8] was 0.83, the “Score … Conjunctiva Discharge” value [8] was 0 and the “Score of ocular lesions: Conjunctiva Nictitating membrane” value [8] was 0.50. For the same molecule, the “Score … Conjunctiva Palpebral edema” value [8] was 0, the “Score … Conjunctiva Palpebral redness” value [8] was 0.33 and the “Score of ocular lesions: Cornea Area” value [8] was 0. For the same molecule, the “Score of ocular lesions: Cornea Degree” value [8] was 0, the “Score of ocular lesions: Iris Values” [8] was 0 and the “Score of ocular lesions: Total score” value [8] was 1.66. For the same molecule, the “Score … Conjunctiva Bulbar redness” value (0.25%, Before instillation) was 0, the “Score … Conjunctiva Discharge” value (0.25%, Before instillation) was 0 and the “Score of ocular lesions: Conjunctiva Nictitating membrane” value (0.25%, Before instillation) was 0. For the same molecule, the “Score … Conjunctiva Palpebral edema” value (0.25%, Before instillation) was 0, the “Score … Conjunctiva Palpebral redness” value (0.25%, Before instillation) was 0 and the “Score of ocular lesions: Cornea Area” value (0.25%, Before instillation) was 0. The “Score of ocular lesions: Cornea Degree” value (0.25%, Before instillation) was 0, the “Score of ocular lesions: Iris Values” (0.25%, Before instillation) was 0 and the “Score of ocular lesions: Total score” value (0.25%, Before instillation) was 0. The “Score … Conjunctiva Bulbar redness” value [9] was 0.50, the “Score … Conjunctiva Discharge” value [9] was 0 and the “Score of ocular lesions: Conjunctiva Nictitating membrane” value [9] was 0. For the same molecule, the “Score … Conjunctiva Palpebral edema” value [9] was 0.17, the “Score … Conjunctiva Palpebral redness” value [9] was 0.17 and the “Score of ocular lesions: Cornea Area” value [9] was 0. For the same molecule, the “Score of ocular lesions: Cornea Degree” value [9] was 0, the “Score of ocular lesions: Iris Values” [9] was 0 and the “Score of ocular lesions: Total score” value [9] was 0.49. The “Score … Conjunctiva Bulbar redness” value [10] was 0.50, the “Score … Conjunctiva Discharge” value [10] was 0.33 and the “Score of ocular lesions: Conjunctiva Nictitating membrane” value [10] was 0.33. For the same molecule, the “Score … Conjunctiva Palpebral edema” value [10] was 0.17, the “Score … Conjunctiva Palpebral redness” value [10] was 0.17 and the “Score of ocular lesions: Cornea Area” value [10] was 0. The “Score of ocular lesions: Cornea Degree” value [10] was 0, the “Score of ocular lesions: Iris Values” [10] was 0 and the “Score of ocular lesions: Total score” value [10] was 1.50. For the same molecule, the “Score … Conjunctiva Bulbar redness” value [11] was 0.50, the “Score … Conjunctiva Discharge” value [11] was 2.67 and the “Score of ocular lesions: Conjunctiva Nictitating membrane” value [11] was 0.50. The “Score … Conjunctiva Palpebral edema” value [11] was 0.83, the “Score … Conjunctiva Palpebral redness” value [11] was 0.67 and the “Score of ocular lesions: Cornea Area” value [11] was 0. The “Score of ocular lesions: Cornea Degree” value [11] was 0, the “Score of ocular lesions: Iris Values” [11] was 0 and the “Score of ocular lesions: Total score” value [11] was 5.17. For the same molecule, the “Score … Conjunctiva Bulbar redness” value [12] was 0.83, the “Score … Conjunctiva Discharge” value [12] was 1.17 and the “Score of ocular lesions: Conjunctiva Nictitating membrane” value [12] was 0.67. The “Score … Conjunctiva Palpebral edema” value [12] was 0.67, the “Score … Conjunctiva Palpebral redness” value [12] was 0.67 and the “Score of ocular lesions: Cornea Area” value [12] was 0. The “Score of ocular lesions: Cornea Degree” value [12] was 0, the “Score of ocular lesions: Iris Values” [12] was 0 and the “Score of ocular lesions: Total score” value [12] was 4.01. The “Score … Conjunctiva Bulbar redness” value (0.5%, Before instillation) was 0.17, the “Score … Conjunctiva Discharge” value (0.5%, Before instillation) was 0 and the “Score of ocular lesions: Conjunctiva Nictitating membrane” value (0.5%, Before instillation) was 0. For the same molecule, the “Score … Conjunctiva Palpebral edema” value (0.5%, Before instillation) was 0, the “Score … Conjunctiva Palpebral redness” value (0.5%, Before instillation) was 0 and the “Score of ocular lesions: Cornea Area” value (0.5%, Before instillation) was 0. The “Score of ocular lesions: Cornea Degree” value (0.5%, Before instillation) was 0, the “Score of ocular lesions: Iris Values” (0.5%, Before instillation) was 0 and the “Score of ocular lesions: Total score” value (0.5%, Before instillation) was 0.17. For the same molecule, the “Score … Conjunctiva Bulbar redness” value [13] was 0.50, the “Score … Conjunctiva Discharge” value [13] was 0.33 and the “Score of ocular lesions: Conjunctiva Nictitating membrane” value [13] was 0.17. The “Score … Conjunctiva Palpebral edema” value [13] was 0.67, the “Score … Conjunctiva Palpebral redness” value [13] was 0.50 and the “Score of ocular lesions: Cornea Area” value [13] was 0. The “Score of ocular lesions: Cornea Degree” value [13] was 0, the “Score of ocular lesions: Iris Values” [13] was 0 and the “Score of ocular lesions: Total score” value [13] was 2.17. The “Score … Conjunctiva Bulbar redness” value [14] was 0.50, the “Score … Conjunctiva Discharge” value [14] was 0.67 and the “Score of ocular lesions: Conjunctiva Nictitating membrane” value [14] was 0.50. The “Score … Conjunctiva Palpebral edema” value [14] was 0.67, the “Score … Conjunctiva Palpebral redness” value [14] was 0.50 and the “Score of ocular lesions: Cornea Area” value [14] was 0. The “Score of ocular lesions: Cornea Degree” value [14] was 0, the “Score of ocular lesions: Iris Values” [14] was 0 and the “Score of ocular lesions: Total score” value [14] was 2.84. The “Score … Conjunctiva Bulbar redness” value [15] was 1.17, the “Score … Conjunctiva Discharge” value [15] was 1.67 and the “Score of ocular lesions: Conjunctiva Nictitating membrane” value [15] was 0.67. The “Score … Conjunctiva Palpebral edema” value [15] was 1.33, the “Score … Conjunctiva Palpebral redness” value [15] was 0.83 and the “Score of ocular lesions: Cornea Area” value [15] was 0. For the same molecule, the “Score of ocular lesions: Cornea Degree” value [15] was 0, the “Score of ocular lesions: Iris Values” [15] was 0 and the “Score of ocular lesions: Total score” value [15] was 5.67. The “Score … Conjunctiva Bulbar redness” value [16] was 1.50, the “Score … Conjunctiva Discharge” value [16] was 2.33 and the “Score of ocular lesions: Conjunctiva Nictitating membrane” value [16] was 1.67. For the same molecule, the “Score … Conjunctiva Palpebral edema” value [16] was 3.00, the “Score … Conjunctiva Palpebral redness” value [16] was 2.17 and the “Score of ocular lesions: Cornea Area” value [16] was 0. The “Score of ocular lesions: Cornea Degree” value [16] was 0, the “Score of ocular lesions: Iris Values” [16] was 0 and the “Score of ocular lesions: Total score” value [16] was 10.67. The “Score … Conjunctiva Bulbar redness” value (1.0%, Before instillation) was 0, the “Score … Conjunctiva Discharge” value (1.0%, Before instillation) was 0 and the “Score of ocular lesions: Conjunctiva Nictitating membrane” value (1.0%, Before instillation) was 0. For the same molecule, the “Score … Conjunctiva Palpebral edema” value (1.0%, Before instillation) was 0, the “Score … Conjunctiva Palpebral redness” value (1.0%, Before instillation) was 0.17 and the “Score of ocular lesions: Cornea Area” value (1.0%, Before instillation) was 0. The “Score of ocular lesions: Cornea Degree” value (1.0%, Before instillation) was 0, the “Score of ocular lesions: Iris Values” (1.0%, Before instillation) was 0 and the “Score of ocular lesions: Total score” value (1.0%, Before instillation) was 0.17.
